According to patent US20230210797A1, “PREVENTING AND TREATING HYPOGLYCEMIA” (DIAMYD MEDICAL AB, priority 2019, published 2023):
Entries after “also recorded” stand apart in the source; their conditions may differ.

Key:
[1] = system: norepinephrine; experiment: Hypoglycemic clamp: plasma norepinephrine levels; format: in vivo, human; settings: for Norepinephrine, change from baseline, Mean (SD) / Norepinephrine, change from baseline, Median (Min, Max) / Norepinephrine, observed value, Mean (SD) / Norepinephrine, observed value, Median (Min, Max): C-peptide undetectable, n=5
Procedure: In order to evaluate the counterregulatory hormone response to hypoglycemia, a hypoglycemic clamp will be performed. The Hypoglycemic Clamp must be performed according to the instructions in the Operations Manual. (Appendix 3)
The patient should: • Come to the study site following an overnight fast (>10 hours), i.e. the patient may not eat but is permitted to drink water • Not have taken the Remygen and, if applicable, Alprazolam dose in the morning • Not take short acting/direct acting insulin within 6 hours before the investigation. • The patient is allowed to take base-insulin day/night before, but not in the morning before the investigation.
Patients with CSII (insulin pump) must continue with their basal dose insulin, but not add bolus dose during the last 6 hours before the investigation.
If a patient has a blood sugar level <4 mmol/L in the morning of the scheduled visit, the patient is allowed to take dextrose tablets and then come to the study site. The patient is allowed to perform the investigation if the blood sugar level is >4 mmol/L.
In the dose-escalation part of the study, the patient will take study drug 30 min prior to start of the hypoglycemic clamp. In the main study, the study drug will instead be taken after finalization of the hypoglycemic clamp. Baseline blood samples will be obtained for glucose, glucagon, epinephrine, norepinephrine, growth hormone and cortisol. The clamp will then be initiated by an intravenous insulin infusion at a rate of 2 mU×kg^−1×min^−1. Glucose 100 mg/ml will then be administered in variable infusion rates to clamp the blood glucose concentration at 5.5 mmol/land then at 2.5 mmol/land kept stable for 30 min. Blood glucose will be evaluated repeatedly in order to find the optimal glucose infusion rate. Blood sampling to determined levels of counterregulatory hormones as described above will be performed at each of these target levels when a stable glucose concentration has been reached. The insulin infusion will thereafter be terminated and the patient is allowed to eat and will be observed until normoglycemia is achieved. If necessary, additional glucose administration will be given to allow blood glucose concentrations to normalize.
Only patients with c-peptide levels that were undetectable (in a standard assay, i.e. <0.01 nmol/L) are included (5 of 6) in the data below.
Plasma levels of glucagon, cortisol, epinephrine, growth hormone and glucose were measured at baseline (increased glucose in T1D subjects). Plasma glucose was first lowered to normoglycemic levels (5.5 mmol/L) and hormone levels monitored, and then to hypoglycemic levels (2.5 mmol/L) and hormone levels monitored. Difference was calculated as a measurement of the response to hypoglycemia.

[2] = Time spent below, within and above normal blood glucose range (4-10 mmol/L), FreeStyle Libre Pro FGM; format: in vivo, human; settings: for Time above range, Mean / Time above range, Median / Time below range, Mean / Time below range, Median / Time within range, Mean / Time within range, Median: normal blood glucose range 4-10 mmol/L, n=6
Source text: The FreeStyle Libre Pro FGM System is a professional glucose monitoring device indicated for detecting trends and tracking patterns and glucose level excursions above or below the desired range, facilitating therapy adjustments in persons with diabetes. Readings from the FreeStyle Libre Pro FGM System are not made available directly to patients in real time. The FreeStyle Libre Pro FGM System aids in the detection of episodes of hyperglycemia and hypoglycemia, facilitating therapy adjustments.
Patients will receive the Freestyle Libre Pro at the site at Visit 1 and Visit 2 in the Safety and Dose Escalation study and will be instructed how to return the FreeStyle Libre to the site after each of the testing period. For the main study patients will receive the Freestyle Libre Pro at the site during Visit 1 (all Treatment arms), Visit 7 (Treatment arm 1), Visit 8 (Treatment arm 2 and 3) and will be instructed how to return the FreeStyle Libre to the site after each of the testing period. However, for Visit 9 (Treatment arm 1) and Visit 10 (Treatment arm 2 and 3) patients will be instructed to come to the site 14 days before the visit to receive the Freestyle Libre and have it activated. The patients will then return the Freestyle Libre at Visit 9 or Visit 10, depending on treatment arm. The timing of the distribution of the glucose monitoring system and assessments is described in Above.
Blood glucose levels for all six patients in the dose escalation part of the study was measured during certain time intervals to determine time spent in, above, and below normal blood glucose range (4-10 mmol/L).

[3] = Visit 5, 200 mg GABA per day, event 2.5 mmol/L
[4] = Visit 5, 200 mg GABA per day, event 5.5 mmol/L
[5] = Visit 5, 200 mg GABA per day, event Baseline
[6] = Visit 5, 200 mg GABA per day, event Diff 2.5-5.5 mmol/L
[7] = Visit 7, 600 mg GABA per day, event 2.5 mmol/L
[8] = Visit 7, 600 mg GABA per day, event 5.5 mmol/L
[9] = Visit 7, 600 mg GABA per day, event Baseline
[10] = Visit 7, 600 mg GABA per day, event Diff 2.5-5.5 mmol/L
[11] = Visit 9, 1200 mg GABA per day, event 2.5 mmol/L
[12] = Visit 9, 1200 mg GABA per day, event 5.5 mmol/L
[13] = Visit 9, 1200 mg GABA per day, event Baseline
[14] = Visit 9, 1200 mg GABA per day, event Diff 2.5-5.5 mmol/L
[15] = normal range 4-10 mmol/L, all six patients of dose escalation part

NCCCC(=O)O [GABA, Gamma-amino butyric acid]
Norepinephrine, change from baseline, Mean (SD) [1, 3]: −0.44 (0.61) nmol(L | Norepinephrine, change from baseline, Median (Min, Max) [1, 3]: −0.30 (−1.3, 0.2) nmol(L | Norepinephrine, observed value, Mean (SD) [1, 3]: 1.82 (0.41) nmol(L | Norepinephrine, observed value, Median (Min, Max) [1, 3]: 1.90 (1.4, 2.3) nmol(L | Norepinephrine, change from baseline, Mean (SD) [1, 4]: −0.16 (0.52) nmol(L | Norepinephrine, change from baseline, Median (Min, Max) [1, 4]: 0.00 (−0.9, 0.5) nmol(L | Norepinephrine, observed value, Mean (SD) [1, 4]: 1.78 (0.52) nmol(L | Norepinephrine, observed value, Median (Min, Max) [1, 4]: 1.60 (1.2, 2.5) nmol(L | Norepinephrine, change from baseline, Mean (SD) [1, 5]: −0.34 (0.53) nmol(L | Norepinephrine, change from baseline, Median (Min, Max) [1, 5]: −0.50 (−0.9, 0.5) nmol(L | Norepinephrine, observed value, Mean (SD) [1, 5]: 1.46 (0.35) nmol(L | Norepinephrine, observed value, Median (Min, Max) [1, 5]: 1.50 (1.1, 2.0) nmol(L | Norepinephrine, change from baseline, Mean (SD) [1, 6]: −0.28 (0.59) nmol(L | Norepinephrine, change from baseline, Median (Min, Max) [1, 6]: 0.00 (−1.3, 0.1) nmol(L | Norepinephrine, observed value, Mean (SD) [1, 6]: 0.04 (0.29) nmol(L | Norepinephrine, observed value, Median (Min, Max) [1, 6]: 0.20 (−0.4, 0.3) nmol(L | Norepinephrine, change from baseline, Mean (SD) [1, 7]: −0.56 (0.73) nmol(L | Norepinephrine, change from baseline, Median (Min, Max) [1, 7]: −0.50 (−1.6, 0.3) nmol(L | Norepinephrine, observed value, Mean (SD) [1, 7]: 1.70 (0.27) nmol(L | Norepinephrine, observed value, Median (Min, Max) [1, 7]: 1.70 (1.4, 2.1) nmol(L | Norepinephrine, change from baseline, Mean (SD) [1, 8]: −0.10 (0.31) nmol(L | Norepinephrine, change from baseline, Median (Min, Max) [1, 8]: −0.10 (−0.4, 0.3) nmol(L | Norepinephrine, observed value, Mean (SD) [1, 8]: 1.84 (0.34) nmol(L | Norepinephrine, observed value, Median (Min, Max) [1, 8]: 2.00 (1.3, 2.1) nmol(L | Norepinephrine, change from baseline, Mean (SD) [1, 9]: −0.32 (0.49) nmol(L | Norepinephrine, change from baseline, Median (Min, Max) [1, 9]: −0.30 (−0.9, 0.4) nmol(L | Norepinephrine, observed value, Mean (SD) [1, 9]: 1.48 (0.70) nmol(L | Norepinephrine, observed value, Median (Min, Max) [1, 9]: 1.20 (1.0, 2.7) nmol(L | Norepinephrine, change from baseline, Mean (SD) [1, 10]: −0.46 (0.50) nmol(L | Norepinephrine, change from baseline, Median (Min, Max) [1, 10]: −0.50 (−1.2, 0.0) nmol(L | Norepinephrine, observed value, Mean (SD) [1, 10]: −0.14 (0.27) nmol(L | Norepinephrine, observed value, Median (Min, Max) [1, 10]: −0.30 (−0.4, 0.2) nmol(L | Norepinephrine, change from baseline, Mean (SD) [1, 11]: −0.66 (0.68) nmol(L | Norepinephrine, change from baseline, Median (Min, Max) [1, 11]: −0.70 (−1.6, 0.0) nmol(L | Norepinephrine, observed value, Mean (SD) [1, 11]: 1.60 (0.42) nmol(L | Norepinephrine, observed value, Median (Min, Max) [1, 11]: 1.60 (1.2, 2.2) nmol(L | Norepinephrine, change from baseline, Mean (SD) [1, 12]: −0.46 (0.84) nmol(L | Norepinephrine, change from baseline, Median (Min, Max) [1, 12]: −0.20 (−1.7, 0.4) nmol(L | Norepinephrine, observed value, Mean (SD) [1, 12]: 1.48 (0.50) nmol(L | Norepinephrine, observed value, Median (Min, Max) [1, 12]: 1.40 (0.8, 2.2) nmol(L | Norepinephrine, change from baseline, Mean (SD) [1, 13]: −0.58 (0.59) nmol(L | Norepinephrine, change from baseline, Median (Min, Max) [1, 13]: −0.50 (−1.3, 0.2) nmol(L | Norepinephrine, observed value, Mean (SD) [1, 13]: 1.22 (0.35) nmol(L | Norepinephrine, observed value, Median (Min, Max) [1, 13]: 1.00 (0.9, 1.6) nmol(L | Norepinephrine, change from baseline, Mean (SD) [1, 14]: −0.20 (0.55) nmol(L | Norepinephrine, change from baseline, Median (Min, Max) [1, 14]: −0.40 (−0.7, 0.7) nmol(L | Norepinephrine, observed value, Mean (SD) [1, 14]: 0.12 (0.41) nmol(L | Norepinephrine, observed value, Median (Min, Max) [1, 14]: 0.00 (−0.2, 0.8) nmol(L | Normoglycemic levels of norepinephrine, effect of GABA treatment ([1]; clamped to 5.5 mmol/L): decrease | Baseline (no clamp) norepinephrine levels, effect of GABA treatment ([1]; dose escalation part, oral GABA, type 1 diabetes patients with undetectable c-peptide): downregulated; also recorded: decrease | Time above range, Mean ([2]; Day 3 to 4): 28.7% | Time above range, Median ([2]; Day 3 to 4): 28.8% | Time below range, Mean ([2]; Day 3 to 4): 14.8% | Time below range, Median ([2]; Day 3 to 4): 14.3% | Time within range, Mean ([2]; Day 3 to 4): 56.6% | Time within range, Median ([2]; Day 3 to 4): 62.0% | Time above range, Mean ([2]; Day 6 to 7): 37.7% | Time above range, Median ([2]; Day 6 to 7): 36.5% | Time below range, Mean ([2]; Day 6 to 7): 4.8% | Time below range, Median ([2]; Day 6 to 7): 4.0% | Time within range, Mean ([2]; Day 6 to 7): 57.6% | Time within range, Median ([2]; Day 6 to 7): 59.5% | Time above range, Mean ([2]; Day 9): 39.5% | Time above range, Median ([2]; Day 9): 50.0% | Time below range, Mean ([2]; Day 9): 5.5% | Time below range, Median ([2]; Day 9): 2.5% | Time within range, Mean ([2]; Day 9): 55.0% | Time within range, Median ([2]; Day 9): 47.0% | Time above normal blood glucose range, effect of GABA treatment [2, 15]: decreased | Time below normal blood glucose range, effect of GABA treatment [2, 15]: decreased | Time in normal blood glucose range, effect of GABA treatment [2, 15]: increased
